Key:
Type in all cases: cell-based, human
A375 melanoma cells = experiment: Inhibition of A375 cell proliferation by siTOP1 (CCK-8); details: A375, siRNA 50 nM, 72 h
Method: • 1) On the day before transfection, A375 melanoma cells were seeded into a 96-well plate at 2500-3000 cells/well, the culture medium being a total volume of 200 μL of DMEM culture medium containing 7.5% FBS and 1% Penicillin-Streptomycin, and the plate was placed in an incubator with 5% CO2 at 37° C. for 24 h to allow the cells to adhere to the wall. 5 replicate wells were made for each group. • 2) On the day of transfection, the culture medium was changed to 90 μL of reduced serum culture medium without antibiotics and containing 7.5% FBS. • 3) The siRNAs were diluted with an appropriate amount of Opti-MEM culture medium; Lipofectamine™ RNAiMAX (Lipo) transfection reagent was diluted with another appropriate amount of Opti-MEM culture medium and left to stand at room temperature for 5 min; and the two dilutions were uniformly mixed and left to stand at room temperature for 5 min. • 4) 10 μL of the mixed solution described above was added to each well to obtain a final transfection volume of 100 μL, and the working concentration of the siRNA was 50 nM. • 5) The cells were cultured in the incubator with 5% CO2 at 37° C. for 72 h.
After 72 h of transfection, 10 μL of CCK-8 solution was added to each well, and the cells were cultured in the incubator with 5% CO2 at 37° C. for another 4 h. The absorbance value at 450 nm was measured using a microplate reader. Cell viability was calculated according to the following formula: […]

TOP1 mRNA [1] = experiment: Inhibitory effect of siTOP1 on TOP1 mRNA in A375 cells (Lipofectamine RNAiMAX transfection, Q-PCR); details: A375, siRNA 50 nM, 48 h after transfection; for Relative expression level of gene, mean value: Blank = 100.00, GAPDH reference
Method: • 1) On the day before transfection, A375 melanoma cells were seeded into a 24-well plate at 6×10^4 to 8×10^4 cells/well, the culture medium being 500 μL of DMEM containing 10% FBS and 1% Penicillin-Streptomycin, and the plate was placed in an incubator with 5% CO2 at 37° C. for 24 h to allow the cells to adhere to the wall. Three replicate wells were made for each group. • 2) On the day of transfection, the culture medium was changed to 450 μL of DMEM culture medium without antibiotics (containing 10% FBS). • 3) The siRNAs were diluted with 25 μL of Opti-MEM culture medium; the siNC (the siNC (reference: O Sordet et al., 2008) having the target sequence of 5′-TTCTCCGAACGTGTCACGT-3′ (SEQ ID NO: 46)) at the same concentration was the negative control group; Lipofectamine™ RNAiMAX (Lipo) transfection reagent was diluted with another 25 μL of Opti-MEM culture medium and left to stand at room temperature for 5 min; and the two dilutions were uniformly mixed and left to stand at room temperature for 5 min. • 4) 50 μL of the mixed solution described above was added to each well to obtain a final transfection volume of 500 μL. and the working concentration of the siRNA was 50 nM. • 5) After the transfection, the cells were cultured for 48 h and then collected.
• 1) RNA was extracted using an Eastep™ Super total RNA extraction kit; 300 μL of RNA lysis solution and 300 μL of RNA diluent were added; and the mixture was uniformly mixed and then transferred to a 1.5 mL centrifuge tube. • 2) The mixture was centrifuged at 14000 g for 5 min, and the supernatant was carefully pipetted into a new 1.5 mL centrifuge tube. • 3) A 0.5-fold volume of absolute ethanol was added, and the mixture was uniformly mixed by allowing the tube to be repeatedly upside down 15-20 times. Subsequently, the mixture was transferred to a centrifuge column and centrifuged at 12000 g for 1 min. The filtrate was discarded. • 4) 600 μL of RNA wash buffer was added, and the mixture was centrifuged at 12000 g for 1 min. The filtrate was discarded. • 5) 50 μL of DNase I incubation buffer was added, followed by DNA digestion at room temperature for 15 min. • 6) 600 μL of RNA wash buffer was added, the mixture was centrifuged at 12000 g for 1 min, and the filtrate was discarded. This procedure was repeated once. • 7) The mixture was centrifuged at 14000 g for 2 min to remove the residual RNA wash buffer, and then the centrifuge column was placed in a collection tube. • 8) An appropriate amount of RNase-free H2O was added, and the mixture was left to stand at room temperature for 12 min and centrifuged at 14000 g for 1 min. The collected RNA was preserved at −70° C. for later use.
• 1) The mass and concentration of the RNA were detected using NanoDrop™, and an RNA template was prepared as follows: RNase-free H2O was added to 1 μg of RNA to a volume of 10 μL; the mixture was placed at 70° C. for 5 min and then placed in an ice bath for 5 min for later use. • 2) A reaction system was established according to Table 2:
• 3) The reaction system described above was uniformly mixed and centrifuged to collect the liquid at the bottom of a tube, and the mixture was subjected to the procedures of 25° C. for 5 min, 42° C. for 60 min, and 72° C. for 15 min, thereby giving the cDNA product. • 4) A Q-PCR system was prepared according to Table 3, and the level of TOP1 gene was detected:
GAPDH was used as an endogenous reference, and the sequences of the primers used for detection are as follows: […]

TOP1 mRNA [2] = experiment: Inhibitory effects of modified sequences of siTOP1-1604 on TOP1 mRNA in PC-3 cells; details: PC-3, siRNA 50 nM, 48 h after transfection, Blank = 100.00
Method: PC-3 human prostate cancer cells were transfected with the modified siTOP1 according to the method in Example 2 at a siRNA working concentration of 50 nM. TOP1 mRNA levels were detected 48 h after the transfection. The control groups were Blank (Opti-MEM at the equal volume), Lipofectamine™ RNAiMAX (Lipo) transfection reagent, and the positive control unmodified siTOP-1604.

| Substance | Relative expression level of gene, mean value (TOP1 mRNA [1]) | Inhibition of TOP1 expression (TOP1 mRNA [1]) [%] | further results |
| --- | --- | --- | --- |
| siTOP1-267: siRNA targeting TOP1; target SEQ ID NO: 1, sense strand SEQ ID NO: 16, antisense strand SEQ ID NO: 31 (sense CAACGAUUCCCAGAUCGAAUU; antisense UUCGAUCUGGGAAUCGUUGUU; modified_base 20..21 OTHER; thymine) | 21.85 |  | Cell viability (%), mean value (A375 melanoma cells): 58.27%; Inhibition of A375 cell proliferation compared to Blank (A375 melanoma cells): about 42% |
| siTOP1-628: siRNA targeting TOP1; target SEQ ID NO: 2, sense strand SEQ ID NO: 17, antisense strand SEQ ID NO: 32 (sense CCUCCUAAAGAGGAUAUAAUU; antisense UUAUAUCCUCUUUAGGAGGUU; modified_base 20..21 OTHER; thymine) | 24.27 |  |  |
| siTOP1-896: siRNA targeting TOP1; target SEQ ID NO: 3, sense strand SEQ ID NO: 18, antisense strand SEQ ID NO: 33 (sense GGAAAUUCCUAGAACAUAAUU; antisense UUAUGUUCUAGGAAUUUCCUU; modified_base 20..21 OTHER; thymine) | 13.05 |  |  |
| siTOP1-1261: siRNA targeting TOP1; target SEQ ID NO: 4, sense strand SEQ ID NO: 19, antisense strand SEQ ID NO: 34 (sense GGAUUCUGUAUUAUGGAUAUU; antisense UAUCCAUAAUACAGAAUCCUU; modified_base 20..21 OTHER; thymine) | 17.75 |  |  |
| siTOP1-1282: siRNA targeting TOP1; target SEQ ID NO: 5, sense strand SEQ ID NO: 20, antisense strand SEQ ID NO: 35 (sense CACAAAGAGAGGAUUGCUAUU; antisense UAGCAAUCCUCUCUUUGUGUU; modified_base 20..21 OTHER; thymine) | 6.64 | 93.4 |  |
| siTOP1-1357: siRNA targeting TOP1; target SEQ ID NO: 6, sense strand SEQ ID NO: 21, antisense strand SEQ ID NO: 36 (sense GGCAUGCUGAAGAGACGAAUU; antisense UUCGUCUCUUCAGCAUGCCUU; modified_base 20..21 OTHER; thymine) | 19.62 |  |  |
| siTOP1-1459: siRNA targeting TOP1; target SEQ ID NO: 7, sense strand SEQ ID NO: 22, antisense strand SEQ ID NO: 37 (sense CGGCAUGAUAACAAGGUUAUU; antisense UAACCUUGUUAUCAUGCCGUU; modified_base 20..21 OTHER; thymine) | 9.89 | 90.1 |  |
| siTOP1-1530: siRNA targeting TOP1; target SEQ ID NO: 8, sense strand SEQ ID NO: 23, antisense strand SEQ ID NO: 38 (sense GCUUAACCCUAGUUCACGAUU; antisense UCGUGAACUAGGGUUAAGCUU; modified_base 20..21 OTHER; thymine) | 9.44 | 90.6 |  |
| siTOP1-1604-m1: Methylation-modified siTOP1-1604; sense strand SEQ ID NO: 51, antisense strand SEQ ID NO: 52 (sense GUGUGGACAAGAUCCGGAATT; antisense UUCCGGAUCUUGUCCACACTT; DNA at T, 2'-O-methyl at CU, RNA at AG, backbone not given here) |  |  | Relative expression level, mean value (TOP1 mRNA [2]): 71.77 |
| siTOP1-1630: siRNA targeting TOP1; target SEQ ID NO: 10, sense strand SEQ ID NO: 25, antisense strand SEQ ID NO: 40 (sense CGAGAAGACUGGAAGUCCAUU; antisense UGGACUUCCAGUCUUCUCGUU; modified_base 20..21 OTHER; thymine) | 17.34 |  | Cell viability (%), mean value (A375 melanoma cells): 43.84%; Inhibition of A375 cell proliferation compared to Blank (A375 melanoma cells): about 56% |
| siTOP1-1679: siRNA targeting TOP1; target SEQ ID NO: 11, sense strand SEQ ID NO: 26, antisense strand SEQ ID NO: 41 (sense CCCUGUACUUCAUCGACAAUU; antisense UUGUCGAUGAAGUACAGGGUU; modified_base 20..21 OTHER; thymine) | 8.86 | 91.1 |  |
| siTOP1-1776: siRNA targeting TOP1; target SEQ ID NO: 12, sense strand SEQ ID NO: 27, antisense strand SEQ ID NO: 42 (sense GCACAUCAAUCUACACCCAUU; antisense UGGGUGUAGAUUGAUGUGCUU; modified_base 20..21 OTHER; thymine) | 7.41 | 92.6 |  |
| siTOP1-2273: siRNA targeting TOP1; target SEQ ID NO: 13, sense strand SEQ ID NO: 28, antisense strand SEQ ID NO: 43 (sense AGGAUGCAAAGACGAAGAAUU; antisense UUCUUCGUCUUUGCAUCCUUU; modified_base 20..21 OTHER; thymine) | 12.54 |  |  |
| siTOP1-2585: siRNA targeting TOP1; target SEQ ID NO: 14, sense strand SEQ ID NO: 29, antisense strand SEQ ID NO: 44 (sense GGUUUGGGAAAGAUGGAUAUU; antisense UAUCCAUCUUUCCCAAACCUU; modified_base 20..21 OTHER; thymine) | 8.84 | 91.2 |  |
| siTOP1-2898: siRNA targeting TOP1; target SEQ ID NO: 15, sense strand SEQ ID NO: 30, antisense strand SEQ ID NO: 45 (sense CGAUUAUAUUGGUGCGUUUUU; antisense AAACGCACCAAUAUAAUCGUU; modified_base 20..21 OTHER; thymine) | 7.05 | 93.0 |  |

From patent US20260139254A1, “INTERFERING RNA FOR INHIBITING TOP1 GENE EXPRESSION AND USE THEREOF” (JENKEM TECHNOLOGY CO., LTD. (BEIJING), priority 2022, published 2026)
